Experimental data taken from patent publication US20160176880A1, “SUBSTITUTED IMIDAZO[1,2-A]PYRAZINECARBOXAMIDES AND USE THEREOF” (BAYER PHARMA AKTIENGESELLSCHAFT, priority 2013, published 2016).
Structures can show the parent of a compound that is named as a salt.

Molecular target: T1, recombinant guanylate cyclase reporter cell line (Rattus norvegicus, UniProt P19686+P20595)
T1 construct: expressed in transfected cells
T1 sequence (P19686 1-690): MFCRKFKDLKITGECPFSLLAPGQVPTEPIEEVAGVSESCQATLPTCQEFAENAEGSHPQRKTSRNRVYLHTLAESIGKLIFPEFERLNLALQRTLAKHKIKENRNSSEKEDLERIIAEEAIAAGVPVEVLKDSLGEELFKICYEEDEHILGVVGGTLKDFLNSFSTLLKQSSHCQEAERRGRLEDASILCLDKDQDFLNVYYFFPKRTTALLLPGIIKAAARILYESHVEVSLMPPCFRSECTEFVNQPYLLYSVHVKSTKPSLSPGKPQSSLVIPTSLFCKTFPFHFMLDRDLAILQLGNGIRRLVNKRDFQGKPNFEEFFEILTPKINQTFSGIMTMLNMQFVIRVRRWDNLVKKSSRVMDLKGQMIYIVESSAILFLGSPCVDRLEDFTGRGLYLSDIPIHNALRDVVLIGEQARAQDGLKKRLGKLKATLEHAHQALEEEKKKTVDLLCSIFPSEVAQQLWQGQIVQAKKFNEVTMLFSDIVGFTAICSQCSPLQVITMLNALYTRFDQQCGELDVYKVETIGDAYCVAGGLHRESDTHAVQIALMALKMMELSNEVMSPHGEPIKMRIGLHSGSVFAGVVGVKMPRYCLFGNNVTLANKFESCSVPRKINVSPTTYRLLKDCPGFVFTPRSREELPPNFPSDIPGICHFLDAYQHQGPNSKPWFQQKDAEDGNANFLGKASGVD
T1 sequence (P20595 1-619): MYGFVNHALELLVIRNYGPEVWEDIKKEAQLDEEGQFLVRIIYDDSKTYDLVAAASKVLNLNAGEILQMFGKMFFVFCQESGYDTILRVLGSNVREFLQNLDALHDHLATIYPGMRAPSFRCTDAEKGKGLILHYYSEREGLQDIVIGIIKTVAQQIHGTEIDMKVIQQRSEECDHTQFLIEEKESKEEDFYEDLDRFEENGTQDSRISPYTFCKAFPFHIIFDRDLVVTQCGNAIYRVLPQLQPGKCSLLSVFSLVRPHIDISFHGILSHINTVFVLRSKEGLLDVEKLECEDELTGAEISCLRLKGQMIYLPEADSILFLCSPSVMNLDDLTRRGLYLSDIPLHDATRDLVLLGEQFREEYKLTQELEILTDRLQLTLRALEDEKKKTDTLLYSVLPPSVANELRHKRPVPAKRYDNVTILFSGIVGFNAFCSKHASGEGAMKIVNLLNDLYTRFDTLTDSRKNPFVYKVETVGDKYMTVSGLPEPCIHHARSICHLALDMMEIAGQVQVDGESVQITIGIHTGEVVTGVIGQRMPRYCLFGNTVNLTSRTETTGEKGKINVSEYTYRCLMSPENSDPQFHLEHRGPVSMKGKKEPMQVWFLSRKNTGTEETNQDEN
Assay: Effect on a recombinant guanylate cyclase reporter cell line
Assay type: cell-based
Details: MEC = minimum effective concentration; in some cases mean values for individual determinations
Protocol: B-2. Effect on a Recombinant Guanylate Cyclase Reporter Cell Line
The cellular action of the compounds of the invention is determined using a recombinant guanylate cyclase reporter cell line, as described in F. Wunder et al., Anal. Biochem. 339, 104-112 (2005).
Representative MEC values (MEC=minimum effective concentration) for the compounds of the invention are shown in the table below (in some cases as mean values for individual determinations): […]

Row | SMILES | MEC
1 | Cc1cn2c(C(=O)NC3(c4ccc(F)c(F)c4)CC3)c(C)nc2c(OCc2c(F)cccc2F)n1 [Example 4, 8-[(2,6-Difluorobenzyl)oxy]-N-[1-(3,4-difluorophenyl)cyclopropyl]-2,6-dimethylimidazo[1,2-a]pyrazine-3-carboxamide] | 1 µM
2 | Cc1cn2c(C(=O)NCC(C)(N)C3CC3)c(C)nc2c(OCc2c(F)cccc2F)n1 (racemic) [Example 20, rac-N-(2-amino-2-cyclopropylpropyl)-8-[(2,6-difluorobenzyl)oxy]-2,6-dimethylimidazo[1,2-a]pyrazine-3-carboxamide] | 3 µM
3 | CC[C@](C)(N)CNC(=O)c1c(C)nc2c(OCc3c(F)cccc3F)nc(C)cn12 [Example 1, ent-N-[(2S)-2-Amino-2-methylbutyl]-8-[(2,6-difluorobenzyl)oxy]-2,6-dimethylimidazo[1,2-a]pyrazine-3-carboxamide] | 0.77 µM
4 | Cc1cn2c(C(=O)NC3CC3c3ccccc3)c(C)nc2c(OCc2c(F)cccc2F)n1 (racemic) [Example 17, rac-8-[(2,6-difluorobenzyl)oxy]-2,6-dimethyl-N-(2-phenylcyclopropyl)imidazo[1,2-a]pyrazine-3-carboxamide] | 10 µM
5 | Cc1cn2c(C(=O)NC(C)C#N)c(C)nc2c(OCc2c(F)cccc2F)n1 (racemic) [Example 14, rac-N-(1-cyanoethyl)-8-[(2,6-difluorobenzyl)oxy]-2,6-dimethylimidazo[1,2-a]pyrazine-3-carboxamide] | 3 µM
6 | Cc1cn2c(C(=O)N[C@H]3CCNC3=O)c(C)nc2c(OCc2c(F)cccc2F)n1 [Example 9, 8-[(2,6-Difluorobenzyl)oxy]-2,6-dimethyl-N-[(3S)-2-oxopyrrolidin-3-yl]imidazo[1,2-a]pyrazine-3-carboxamide] | 3 µM
7 | COC(=O)[C@H]1CC[C@H](CNC(=O)c2c(C)nc3c(OCc4c(F)cccc4F)nc(C)cn23)CC1 [Example 8, Methyl trans-4-{[({8-[(2,6-difluorobenzyl)oxy]-2,6-dimethylimidazoyl}carbonyl)amino]methyl}cyclohexanecarboxylate] | 1 µM
8 | Cc1cn2c(C(=O)Nc3ccnc4ccc(F)cc34)c(C)nc2c(OCc2c(F)cccc2F)n1 [Example 10, 8-[(2,6-Difluorobenzyl)oxy]-N-(6-fluoroquinolin-4-yl)-2,6-dimethylimidazo[1,2-a]pyrazine-3-carboxamide] | 0.3 µM
9 | Cc1cn2c(C(=O)NCCN(C)C)c(C)nc2c(OCc2c(F)cccc2F)n1 [Example 19, 8-[(2,6-difluorobenzyl)oxy]-N-[2-(dimethylamino)ethyl]-2,6-dimethylimidazo[1,2-a]pyrazine-3-carboxamide] | 3 µM
10 | Cc1cn2c(C(=O)NCc3ccccc3-c3cccnc3)c(C)nc2c(OCc2c(F)cccc2F)n1 [Example 21, 8-[(2,6-difluorobenzyl)oxy]-2,6-dimethyl-N-[2-(pyridin-3-yl)benzyl]imidazo[1,2-a]pyrazine-3-carboxamide] | 3 µM
11 | Cc1cn2c(C(=O)Nc3c(C(F)(F)F)n[nH]c3C)c(C)nc2c(OCc2c(F)cccc2F)n1 [Example 27, 8-[(2,6-difluorobenzyl)oxy]-2,6-dimethyl-N-[5-methyl-3-(trifluoromethyl)-1H-pyrazol-4-yl]imidazo[1,2-a]pyrazine-3-carboxamide] | 1 µM
12 | Cc1cn2c(C(=O)Nc3cnn(CC(F)(F)F)c3)c(C)nc2c(OCc2c(F)cccc2F)n1 [Example 24, 8-[(2,6-difluorobenzyl)oxy]-2,6-dimethyl-N-[1-(2,2,2-trifluoroethyl)-1H-pyrazol-4-yl]imidazo[1,2-a]pyrazine-3-carboxamide] | 3 µM
13 | Cc1cn2c(C(=O)Nc3c(C)nn(Cc4ccc(F)cc4)c3C)c(C)nc2c(OCc2c(F)cccc2F)n1 [Example 23, 8-[(2,6-difluorobenzyl)oxy]-N-[1-(4-fluorobenzyl)-3,5-dimethyl-1H-pyrazol-4-yl]-2,6-dimethylimidazo[1,2-a]pyrazine-3-carboxamide] | 1 µM
14 | Cc1cn2c(C(=O)NC(C)c3nc(C(F)(F)F)no3)c(C)nc2c(OCc2c(F)cccc2F)n1 (racemic) [Example 26, rac-8-[(2,6-difluorobenzyl)oxy]-2,6-dimethyl-N-{1-[3-(trifluoromethyl)-1,2,4-oxadiazol-5-yl]ethyl}imidazo[1,2-a]pyrazine-3-carboxamide] | 3 µM

Second part, the compound after the results:

Row | MEC | SMILES
15 | 1.0 µM | Cc1cn2c(C(=O)NCC3CCC(C#N)CC3)c(C)nc2c(OCc2c(F)cccc2F)n1 (mixture of isomers) [Example 50, N-[(4-cyanocyclohexyl)methyl]-8-[(2,6-difluorobenzyl)oxy]-2,6-dimethylimidazo[1,2-a]pyrazine-3-carboxamide trifluoroacetate (cis/trans mixture)]
16 | 1 µM | Cc1cn2c(C(=O)NCC3(O)CC3)c(C)nc2c(OCc2c(F)cccc2F)n1 [Example 32, 8-[(2,6-difluorobenzyl)oxy]-N-[(1-hydroxycyclopropyl)methyl]-2,6-dimethylimidazo[1,2-a]pyrazine-3-carboxamide]
17 | 1.0 µM | Cc1nc2c(OCC3CCCCC3)nccn2c1C(=O)NCc1ccc(F)c(F)c1 [Example 47, 8-(Cyclohexylmethoxy)-N-(3,4-difluorobenzyl)-2-methylimidazo[1,2-a]pyrazine-3-carboxamide]
18 | 0.65 µM | Cc1cn2c(C(=O)NCC(C)(N)CC(F)F)c(C)nc2c(OCc2c(F)cccc2F)n1 (single isomer, unassigned; enantiomer a) [Example 41, ent-N-(2-Amino-4,4-difluoro-2-methylbutyl)-8-[(2,6-difluorobenzyl)oxy]-2,6-dimethylimidazo[1,2-a]pyrazine-3-carboxamide (enantiomer A)]
19 | 0.3 µM | Cc1cn2c(C(=O)NCC(C)(N)CF)c(C)nc2c(OCc2c(F)cccc2F)n1 (single isomer, unassigned; enantiomer b) [Example 37, ent-N-(2-Amino-3-fluoro-2-methylpropyl)-8-[(2,6-difluorobenzyl)oxy]-2,6-dimethylimidazo[1,2-a]pyrazine-3-carboxamide (enantiomer B)]
20 | 0.3 µM | Cc1cn2c(C(=O)NCC(C)(N)CCCF)c(C)nc2c(OCc2c(F)cccc2F)n1 (single isomer, unassigned; enantiomer b) [Example 40, ent-N-(2-Amino-5-fluoro-2-methylpentyl)-8-[(2,6-difluorobenzyl)oxy]-2,6-dimethylimidazo[1,2-a]pyrazine-3-carboxamide (enantiomer B)]
21 | 1.0 µM | Cc1cn2c(C(=O)NNC3CCCC3O)c(C)nc2c(OCc2c(F)cccc2F)n1 (mixture of isomers) [Example 54, 8-[(2,6-difluorobenzyl)oxy]-N′-(2-hydroxycyclopentyl)-2,6-dimethylimidazo[1,2-a]pyrazine-3-carbohydrazide trifluoroacetate (mixture of stereoisomers)]
22 | 10 µM | Cc1cn2c(C(=O)NN3CCOCC3)c(C)nc2c(OCc2c(F)cccc2F)n1 [Example 45, 8-[(2,6-difluorobenzyl)oxy]-2,6-dimethyl-N-(morpholin-4-yl)imidazo[1,2-a]pyrazine-3-carboxamide]
23 | 0.2 µM | CCCC(C)(N)CNC(=O)c1c(C)nc2c(OCc3c(F)cccc3F)nc(C)cn12 (single isomer, unassigned; enantiomer b) [Example 39, ent-N-(2-Amino-2-methylpentyl)-8-[(2,6-difluorobenzyl)oxy]-2,6-dimethylimidazo[1,2-a]pyrazine-3-carboxamide (enantiomer B)]
24 | 3 µM | Cc1cn2c(C(=O)NCCN(CC(F)F)C3CC3)c(C)nc2c(OCc2c(F)cccc2F)n1 [Example 33, N-{2-[cyclopropyl(2,2-difluoroethyl)amino]ethyl}-8-[(2,6-difluorobenzyl)oxy]-2,6-dimethylimidazo[1,2-a]pyrazine-3-carboxamide]
